Assay results reported in patent US20100210652A1, “Method For Controlling Fungal Pests” (priority 2006, published 2010).

Legend:
[1] = system: sensitive Plasmopara viticola strains; experiment: Activity against sensitive Plasmopara viticola strains on grapevine plants (Riesling); format: in vivo; conditions: final evaluation on day 6
Description: (§1) Study on the activity of the four carboxamide fungicides against sensitive and resistant Plasmopara viticola strains.
(§2) Four-week old grapevine plants (Riesling) with 6-8 leaves are treated with 50 ml of a solution which contains the harmful fungi (200 000 spores of the fungus Plasmopara viticola per milliliter). Tests are carried out both with sensitive and with resistant strains.
(§3) The fungicidal active substances described in Example 1 are applied both one day before the treatment with the harmful fungi (preventative treatment) and in each case one day after the treatment with the harmful fungi (curative treatment). After the treatment with the harmful fungi, the plants are left to stand overnight at 95% atmospheric humidity and a temperature of 18° C. This is followed by a 6-day observation phase and a final evaluation on day 6, the test plants being exposed to daylight for 12 hours and left to stand in the dark for 12 hours.
(§4) To promote spore development, the undersides of the grapevine leaves are sprayed with water 24 hours before carrying out the final evaluation and left to stand.
(§5) The experiments are evaluated by determining the percentage of diseased leaf area of each plant. A high percentage means a high disease level caused by the harmful fungus, while a low percentage means a low disease level caused by the harmful fungus.

[2] = system: resistant Plasmopara viticola strains; experiment: Activity against resistant Plasmopara viticola strains on grapevine plants (Riesling); format: in vivo; conditions: for diseased leaf area: resistant fungi, grapevine (Riesling), final evaluation on day 6; for assessment in words of the treatment of resistant fungal strains: preventative treatment
Description: as §1, §2, §3, §4, §5

[3] = curative treatment (one day after treatment with the harmful fungi)
[4] = preventative treatment (one day before treatment with the harmful fungi)

SMILES | diseased leaf area [1, 3] | diseased leaf area [1, 4] | diseased leaf area [2, 3] | diseased leaf area [2, 4] | assessment in words of the treatment of resistant fungal strains [2]
C#CCOc1ccc(CCNC(=O)C(OCC#C)c2ccc(Cl)cc2)cc1OC (racemic) [stock solution B, (RS)-2-(4-chlorophenyl)-N-[3-methoxy-4-(prop-2-ynyloxy)phenethyl]-2-(prop-2-ynyloxy)acetamide] | 0% | 0% | 65% | 8% | effective
COc1ccc(C(=CC(=O)N2CCOCC2)c2ccc(Cl)cc2)cc1OC [stock solution A, (E,Z)-4-[3-(4-chlorophenyl)-3-(3,4-dimethoxyphenyl)acryloyl]morpholine] | 0% | 0% | 70% | 0.5% | effective
Cc1ccc(C(C)NC(=O)[C@@H](NC(=O)OC(C)C)C(C)C)cc1 (stereo partly drawn) [stock solution C, isopropyl 2-methyl-1-[(1-p-tolylethyl)carbamoyl]-(S)-propylcarbamate] | 0% | 0% | 75% | 70% | no satisfactory results
CC(C)OC(=O)N[C@H](C(=O)N[C@H](C)c1nc2ccc(F)cc2s1)C(C)C [stock solution D, isopropyl[(S)-1-{[(R)-1-(6-fluoro-1,3-benzothiazol-2-yl)ethyl]carbamoyl}-2-methylpropyl]carbamate] | 0% | 0% | 70% | 55% | no satisfactory results
